Assay results as given in ChEMBL document CHEMBL4145495, “Development of novel oxazolo[5,4-d]pyrimidines as competitive CB2 neutral antagonists based on scaffold hopping” (Eur J Med Chem, 2018).

Assays:
[1] = Cytotoxicity against wild-type CHO cells assessed as cell growth inhibition at 10 uM after 72 hrs by MTS assay; format: cell-based, Cricetulus griseus; details: chinese hamster, read-out: GI
[2] = Half life in CD1 mouse liver microsomes at 1 uM up to 40 mins by UPLC-MS/MS analysis; format: ADME, microsome
[3] = Intrinsic clearance in CD1 mouse liver microsomes at 1 uM up to 40 mins by UPLC-MS/MS analysis; format: ADME, microsome; details: read-out: CLH
[4] = Cytotoxicity against CB2-expressing CHO cells assessed as cell growth inhibition at 10 uM after 72 hrs by MTS assay; format: cell-based, Cricetulus griseus; details: chinese hamster, read-out: GI
[5] = Cytotoxicity against human HT-29 cells assessed as cell growth inhibition at 10 uM after 72 hrs by MTS assay; format: cell-based; details: read-out: GI
[6] = biological target: Cannabinoid receptor 1 (Homo sapiens, UniProt P21554); assay: Displacement of [3H]-CP-55940 from human CB1 expressed in CHO cells after 90 mins by TopCount scintillation counting method; format: cell-based
Sequence of Cannabinoid receptor 1 (P21554 whole entry): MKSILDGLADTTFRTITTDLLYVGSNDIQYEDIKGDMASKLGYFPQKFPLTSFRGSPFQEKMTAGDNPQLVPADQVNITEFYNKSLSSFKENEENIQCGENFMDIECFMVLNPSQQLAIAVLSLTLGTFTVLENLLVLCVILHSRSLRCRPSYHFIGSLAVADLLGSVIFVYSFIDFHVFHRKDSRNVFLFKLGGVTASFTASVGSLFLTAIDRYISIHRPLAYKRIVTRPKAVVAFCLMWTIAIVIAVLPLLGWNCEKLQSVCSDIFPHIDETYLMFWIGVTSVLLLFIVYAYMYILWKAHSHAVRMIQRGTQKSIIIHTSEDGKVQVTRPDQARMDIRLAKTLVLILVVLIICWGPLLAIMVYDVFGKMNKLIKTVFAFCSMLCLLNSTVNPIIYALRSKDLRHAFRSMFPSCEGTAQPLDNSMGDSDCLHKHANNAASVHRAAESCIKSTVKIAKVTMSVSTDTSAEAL

[7] = biological target: T1, Cannabinoid receptor 2 (Homo sapiens, UniProt P34972); assay: Displacement of [3H]-CP-55940 from human CB2 expressed in CHO cells after 90 mins by TopCount scintillation counting method; format: cell-based
T1 sequence (P34972 whole entry): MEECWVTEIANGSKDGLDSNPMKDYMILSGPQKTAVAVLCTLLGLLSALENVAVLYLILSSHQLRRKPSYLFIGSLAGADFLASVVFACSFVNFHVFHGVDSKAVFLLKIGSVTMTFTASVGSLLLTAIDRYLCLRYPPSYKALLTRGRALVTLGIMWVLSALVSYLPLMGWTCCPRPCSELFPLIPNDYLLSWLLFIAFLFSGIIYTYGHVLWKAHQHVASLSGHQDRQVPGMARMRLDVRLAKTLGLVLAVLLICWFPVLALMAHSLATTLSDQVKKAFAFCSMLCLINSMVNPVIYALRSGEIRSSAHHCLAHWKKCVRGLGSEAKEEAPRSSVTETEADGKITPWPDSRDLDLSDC

[8] = species: Homo sapiens; assay: Selectivity index, ratio of Ki for human CB1 to Ki for human CB2
[9] = biological target: T1, Cannabinoid receptor 2; assay: Neutral antagonist activity at human CB2 assessed as restoration of forskolin-induced cAMP formation preincubated for 15 mins followed by forskolin addition for 30 mins measured after 1 hr by HTRF assay; format: functional
[10] = biological target: T1, Cannabinoid receptor 2; assay: Neutral antagonist activity at human CB2 assessed as inhibition of WIN552122-induced suppression of cAMP formation preincubated for 15 mins followed by forskolin addition for 30 mins measured after 1 hr by HTRF assay; format: functional
[11] = Half life in CD1 mouse liver microsomes at 200 nM up to 40 mins by UPLC-MS/MS analysis; format: ADME, microsome
[12] = Intrinsic clearance in CD1 mouse liver microsomes at 200 nM up to 40 mins by UPLC-MS/MS analysis; format: ADME, microsome; details: read-out: CLH

SMILES | inhibition at 72 h, 10 µM [1] [%] | half-life at 1 µM [2] [min] | microsomal CLint at 1 µM [3] [µL/min/mg] | inhibition at 72 h, 10 µM [4] [%] | inhibition at 72 h, 10 µM [5] [%] | Ki [6] [µM] | Ki [7] [µM] | Ratio Ki [8] | IC50 [9] [µM] | IC50 [10] [µM] | half-life at 0.2 µM [11] [min] | microsomal CLint at 0.2 µM [12] [µL/min/mg]
CCN1CCN(c2nc(C)nc3[nH]c(-c4ccccc4Cl)nc23)CC1 | 30 | 44 | 54 | 0 | 0 | – | – | – | – | – | – | –
CCCCCNc1ncnc2oc(-c3ccccc3Cl)nc12 | 6 | – | – | 13 | 10 | > 1 | > 1 | – | – | – | – | –
CCN1CCN(c2ncnc3oc(-c4ccccc4F)nc23)CC1 | 10 | – | – | 8 | 24 | > 1 | > 1 | – | – | – | – | –
CC(=O)N1CCN(c2ncnc3oc(-c4ccccc4C(F)(F)F)nc23)CC1 | 12 | 12.5 | 174 | 1 | 12 | > 1 | 0.254 | > 3.9 | – | – | – | –
CCCCNc1ncnc2oc(-c3ccccc3Cl)nc12 | 0 | – | – | 18 | 0 | > 1 | > 1 | – | – | – | – | –
COCCNc1ncnc2oc(-c3ccccc3Cl)nc12 | 0 | – | – | 0 | 0 | > 1 | > 1 | – | – | – | – | –
CCN1CCN(c2nc(C)nc3oc(-c4ccccc4Cl)nc23)CC1 | 0 | 8.1 | 263 | 16 | 16 | 0.293 | 0.023 | 12.7 | 0.12 | 0.12 | – | –
CN1CCN(c2ncnc3oc(-c4ccccc4F)nc23)CC1 | 8 | – | – | 7 | 0 | > 1 | > 1 | – | – | – | – | –
CCN1CCN(c2ncnc3oc(-c4ccccc4C(F)(F)F)nc23)CC1 | 10 | 1 | 1240 | 5 | 1 | > 1 | 0.0955 | > 10.4 | – | – | – | –
CN1CCN(c2ncnc3oc(-c4ccccc4Cl)nc23)CC1 | 0 | – | – | 0 | 8 | > 1 | 0.35 | > 2.8 | – | – | 1.3 | 1180
CCCN1CCN(c2ncnc3oc(-c4ccccc4Cl)nc23)CC1 | 0 | – | – | 2 | 0 | > 1 | > 1 | – | – | – | – | –
CN1CCN(c2ncnc3oc(-c4ccccc4)nc23)CC1 | 0 | – | – | 0 | 0 | > 1 | > 1 | – | – | – | – | –
Clc1ccccc1-c1nc2c(NCC3CCCCC3)ncnc2o1 | 0 | – | – | 10 | 0 | > 1 | > 1 | – | – | – | – | –
CC(=O)N1CCN(c2ncnc3oc(-c4ccccc4Cl)nc23)CC1 | 23 | – | – | 11 | 0 | > 1 | 0.678 | > 1.4 | – | – | 12.2 | 194
CN1CCN(c2ncnc3oc(-c4ccccc4C(F)(F)F)nc23)CC1 | 3 | 0.9 | 1260 | 0 | 0 | > 1 | 0.155 | > 6.4 | – | – | – | –
CCN1CCN(c2ncnc3oc(-c4ccccc4Cl)nc23)CC1 | 1 | 1.2 | 1100 | 9 | 4 | > 1 | 0.329 | > 3 | – | – | – | –
CCN1CCN(c2ncnc3oc(-c4ccccc4)nc23)CC1 | 0 | – | – | 0 | 0 | > 1 | > 1 | – | – | – | – | –
Clc1ccccc1-c1nc2c(NCC3CCNCC3)ncnc2o1 | 0 | – | – | 9 | 41 | > 1 | > 1 | – | – | – | – | –
Clc1ccccc1-c1nc2c(N3CCOCC3)ncnc2o1 | 0 | – | – | 10 | 5 | > 1 | > 1 | – | – | – | – | –
COc1ccc(C(=O)c2c(C)n(CCN3CCOCC3)c3cc(I)ccc23)cc1 | 0 | – | – | 0 | 0 | – | 0.091 | – | – | – | – | –
Cc1nc(N2CCN(C)CC2)c2nc(-c3ccccc3Cl)oc2n1 | 0 | 4.1 | 502 | 4 | 24 | > 1 | 0.0275 | > 36.3 | 0.93 | 0.93 | – | –
